System: Renal Cell Carcinoma patients
Assay: Clinical efficacy of Bevacizumab treatment by body imaging (size reduction of the tumor)
Format: in vivo, human
Procedure: (§1) A study is performed to generate kinase inhibition profiles from tumor tissues derived from Renal Cell Carcinoma patients treated with the drug Bevacizumab. The tissue is derived from tumor resection performed before the Bevacizumab treatment is started. Bevacizumab is an antibody that blocks the triggering of the Vascular Endothelial Growth Factor Receptors (VEGFR), and thereby blocks the VEGFR signal transduction pathways.
The activity of the targeted VEGFR or VEGFR pathway is assessed in lysates prepared from Bevacizumab responding and non-responding patients. Clinical efficacy is determined using body imaging, thereby monitoring the size reduction of the tumor. In this assessment the lysates are profiled for activities of kinases on a peptide microarray comprising peptide substrates for protein tyrosine kinases. […] It is shown that peptides that are inhibited by these VEGFR kinase inhibitors, thus reporting VEGFR activity, are found in the microarray analyses of the Bevacizumab responding patients, and are not inhibited in the analyses of the patients not responding to Bevacizumab (Table 1). […] As these inhibition profiles are generated from tumor tissue derived from the patients before the treatment is started, these inhibition profiles are predictive for the clinical response of these patients. In patients with an active VEGFR pathway this drug is clinically active. In patients with no active VEGFR pathway no clinical effects are provided.
as §1, with “before” for “before the”, “thereby it” for “thereby”, “pathways. In patients with an active VEGFR pathway this drug is expected to be clinically active.” for “pathways.”
The activity of the alternative pathway is assessed in lysates prepared from Bevacizumab responding and non-responding patients. Clinical efficacy is determined using body imaging, thereby monitoring the size reduction of the tumor. In this assessment the lysates are profiled for activities of kinases on a peptide microarray comprising peptide substrates for protein tyrosine kinases. These kinase activity profiling tests are performed both in the presence and absence of an IGFR kinase inhibitor. […] It is shown that peptides that are inhibited by this IGFR kinase inhibitor, thus reporting IGFR activity, are found in the analyses of the Bevacizumab responding patients, and are not inhibited in the analyses of the patients not responding to Bevacizumab (Table 2). […] As these inhibition profiles are generated from tumor tissue derived from the patients before the treatment is started, these inhibition profiles are predictive for clinical response. Therefore, in patients with no active VEGFR pathway or with an alternative pathway allowing the tumor growth independent of the VEGFR signalling pathway, no clinical effect is obtained.

Bevacizumab: antibody that blocks the triggering of the Vascular Endothelial Growth Factor Receptors (VEGFR); binds VEGF
Clinical response (Example 1, Patient 1, Renal Cell Carcinoma): Responder | Clinical response (Example 1, Patient 2, Renal Cell Carcinoma): Responder | Clinical response (Example 1, Patient 3, Renal Cell Carcinoma): Non Responder | Clinical response (Example 1, Patient 4, Renal Cell Carcinoma): Non Responder | Clinical response (Example 2, Patient 1, Renal Cell Carcinoma): Responder | Clinical response (Example 2, Patient 2, Renal Cell Carcinoma): Responder | Clinical response (Example 2, Patient 3, Renal Cell Carcinoma): Non Responder | Clinical response (Example 2, Patient 4, Renal Cell Carcinoma): Non Responder

Source: patent publication US20120021939A1, “METHOD FOR PROFILING DRUG COMPOUNDS USING PROTEIN KINASE INHIBITORS” (priority 2009, published 2012)
